Measurements from patent publication US11119094B2, “Aqueous citrate-buffered metal solutions” (CD DIAGNOSTICS, INC., priority 2017, dated 2021).

Experiments:
lymphocytes = experiment: Lymphocyte Transformation Test for metal sensitivity (stimulation index); type: cell-based; settings: SI≥4 positive
Description: The Lymphocyte Transformation Test used for Metal Sensitivity Testing measures cell proliferation relative to a negative control.

mononuclear cells = experiment: Lymphocyte Transformation Test with PWM positive control in the presence of metals (toxicity); type: cell-based; settings: metals stabilized with citrate
Description: In this example, each metal tested was stabilized with citrate.

Substance: polkweed mitogen [PWM]
- Stimulation Index (lymphocytes; Subject 19A, 6 Dec. 2016, assay with citrate): 108.15
- Stimulation Index (lymphocytes; Subject 19A, 15 Jul. 2016, assay without citrate): 124
- Stimulation Index (lymphocytes; Subject 21R, 3 Feb. 2017, assay with citrate): 75.85
- Stimulation Index (lymphocytes; Subject 21R, 19 Jul. 2016, assay without citrate): 223
- Stimulation Index (lymphocytes; Subject 20112, 11 Jan. 2017, assay with citrate): 691.43
- Stimulation Index (lymphocytes; Subject 20112, 11 Nov. 2016, assay without citrate): 669.51
- Stimulation Index (lymphocytes; Subject 71390, 4 Nov. 2016, assay without citrate): 119.6
- Stimulation Index (lymphocytes; Subject 71390, 11 Jan. 2017, assay with citrate): 128.6
- Stimulation Index for PWM in the presence of 0.1 mM metals (mononuclear cells; Donor LS 23 89053D): 217
- Stimulation Index for PWM in the presence of 0.1 mM metals (mononuclear cells; Donor LS 23 89054C): 40
- Stimulation Index for PWM in the presence of 0.1 mM metals (mononuclear cells; Donor LS 23 89058C): 202
- Stimulation Index for PWM in the presence of 0.1 mM metals (mononuclear cells; Donor LS 23 89063E): 362
